The text below walks through data of patent US12590125B2, “Peptide inhibitors for the inhibition of HIV capsid” (THE CURATORS OF THE UNIVERSITY OF MISSOURI, priority 2019, dated 2026).

Read-outs that look alike come from different tables or passages of the source. Residues, ends and D or L forms follow the SMILES beside them.

The test system of assay [1] is HIV. As to conditions: MT-4 cells; read-out: EC50, anti-HIV activity; cited from earlier work.
Assay [2] has as its system HIV-1. Particulars: PBMCs, 23 HIV-1 clinical isolates from different subtypes, cited from earlier work.
Assay [3] concerns HIV. Particulars: MT-2 cells; cited from earlier work.
In assay [4] the target is CA-hexamers. Particulars: read-out: binding affinity of CA-hexamers with PF74 by ITC; isothermal calorimetry, Bhattacharya et al., 2014; cited from earlier work. A general note: In ITC the heat of successive injections is recorded.
Assay [5] addresses HIV-1 CA-hexamers (Human immunodeficiency virus type 1 group M subtype B, UniProt P12493). The experiment in a line: biochemical. The assay is classed as binding.
Protocol: During the MST experiment, a temperature gradient is induced by an infrared laser. The directed movement of molecules through the temperature gradient is detected and quantified using covalently attached fluorophore.
Fluorescent labeling of CA with Alexa Fluor 647 analog NT647 was performed according to the manufacturer's instructions (MO-L004 Monolith Protein Labeling Kit; NanoTemper Technologies GmbH, Munich, Germany). 20 μM protein was incubated overnight with 3 molar excess of dye at room temperature in a conjugation buffer provided with the labeling kit. The unreacted dye was removed by filtration through a gravity flow column provided with the kit. The elution fractions were collected in 2×MST buffer (100 mM MOPS, pH 7.0, 200 mM NaCl, and 0.2% pluronic F-127). Fluorescence intensity of each fraction was evaluated by MST (Monolith NT.115, NanoTemper Technologies GmbH, Munich, Germany), and fractions containing labelled protein were pooled. Protein concentration was determined by NANODROP (Thermo Scientific, Waltham, MA) spectrophotometer. Aliquots were stored at −80° C. until use. […] The data were analyzed using MO. Affinity software (version 2.3) (NanoTempet Technologies, CA) by fitting the data point to a quadratic equation (Equation 1) and plotting by PRISM (Version 6.0) (GraphPad Inc. La Jolla, CA).

One may read the EC50 as the concentration that produces a half-maximal response. Consider `CC(C)(C#Cc1ccc(-c2ccc(Cl)c3c(NS(C)(=O)=O)nn(CC(F)(F)F)c23)c([C@H](Cc2cc(F)cc(F)c2)NC(=O)Cn2nc(C(F)(F)F)c3c2C(F)(F)[C@@H]2C[C@H]32)n1)S(C)(=O)=O` [GS-6207], for which the results for the EC50 in assay [1], in assay [2] (read-out: mean EC50) and in assay [2] (read-out: range of EC50 over clinical isolates) were 0.1 nM, 0.05 nM and 0.02 to 0.16 nM, respectively.
Take `Cc1[nH]c2ccccc2c1CC(=O)N[C@@H](Cc1ccccc1)C(=O)N(C)c1ccccc1` [PF74]: the EC50 in assay [3] is 570 nM. For the same compound, the Kd in assay [4] was 262 nM.
The compound `CC(C)[C@@H]1NC(=O)CNC(=O)[C@H](CO)NC(=O)CNC(=O)[C@@H]2CCCN2C(=O)[C@H](Cc2ccccc2)NC(=O)[C@H](CC(N)=O)NC(=O)[C@H](C(C)C)NC(=O)[C@@H]2CCCN2C(=O)CNC(=O)[C@H](Cc2ccccc2)NC(=O)[C@H]([C@@H](C)O)NC(=O)[C@H](Cc2ccccc2)NC1=O` [Pep-2-cyclic] (cyclo(FGPVNFPGSGVFT)) gave a Kd in assay [5] of 32 ± 3 nM. In addition, in assay [5] (Pep-2-cyclic vs PF74, MST), the “fold better CA binding affinity than PF74” value is about 7 fold.
